Data from patent US9220261B1, “Volatile blends and the effects thereof on the navel orangeworm moth” (The United States of America, as represented by the …, priority 2010, dated 2015).

Tests used:
NOW [1] = test: Electroantennographic studies of CONO; set-up: species or system Amyelois transitella; settings: lower than the positive standard
NOW [2] = test: Field trapping screening studies of individual CONO; format: in vivo, Amyelois transitella; settings: September 2 to Oct. 5, 2009, almond and pistachio orchards
Source text: FAB.x and GAVA.x blends were mixed with another component, conophthorin (CONO). CONO increased the efficacy of the blends in the FAB4 and GAVA series. This was somewhat unexpected as CONO alone is not attractive to NOW. […] Subsequent field trapping screening studies of individual CONO between September 2 and Oct. […] Virgin female NOW-baited traps at the same time indicated pressures of NOW in the orchards.

female NOW antennae = test: Electroantennogram (EAG) bioassay, female NOW antennae; set-up: species or system Amyelois transitella; settings: Example 1; 50 μg on disc (almond meal 3.1 mg); raw response minus NegCtrl
Description: The EAG experiments were performed by similar protocols described previously (Beck et al., 2009, supra). The antennae of sexed NOW were excised, positioned on a fork electrode using electrode gel, and connected to an IDAC-4 acquisition controller and electrophysiological amplifier using PC-based software (Syntech, Kirchzarten, Germany). The antennae were humidified with a stream of purified air bubbled through distilled water at a flow rate of 200 ml/min. The individual compounds for EAG analysis (50 μg; 10 μl of a 5 μg/μl solution in pentane) were loaded onto oven-dried 0.64 cm assay discs, allowed to air-dry for five min, inserted into 14.6 cm Pasteur pipets and the ends temporarily capped with parafilm. […] For almond meal analyses, 3.1 mg was placed in a Pasteur pipet containing very lightly packed glass wool. Negative control ([…]) discs were prepared using a similar method, but with 10 μl of pentane prior to solvent evaporation. Positive control (PosCtrl) discs were prepared using the major sex pheromone component (Z,Z)-11,13-hexadecadienal (50 μg, Suterra LLC, Bend, Oreg.). The pipets loaded with the individual compounds were attached via tubing to a stimulus controller unit (Syntech). The antennae were exposed to each compound by a two-second puff of air and the resulting response recorded. […]

Row | SMILES | electroantennographic activity (NOW [1]) | attraction of NOW in field trapping (NOW [2]) | EAG antennal response from female NOW, normalized (female NOW antennae) [μV]
1 | C[C@@H]1CCC[C@@]2(CCCO2)O1 [CONO, 7-methyl-1,6-dioxaspiro[4.5]decane] | mildly active | did not attract any NOW | 
2 | CC(=O)c1ccccc1 [acetophenone] |  |  | 397
3 | Oc1ccccc1 [phenol] |  |  | 78
